Patent US20110230359A1, “LABEL-FREE ON-TARGET PHARMACOLOGY METHODS” (priority 2010, published 2011)

Assays:
[1] = test system: GPR109A; assay: modulation profiling DMR assay, marker nicotinic acid, A431 cells; format: cell-based, human; conditions: 10 μM salbutamol pretreatment ~1 hr, 1 μM nicotinic acid
[2] = test system: EGFR; assay: modulation profiling DMR assay, marker EGF, A431 cells; format: cell-based, human; conditions: 10 μM salbutamol pretreatment ~1 hr, 32 nM epidermal growth factor

CC(C)(C)NCC(O)c1ccc(O)c(CO)c1 (centres unmarked) [salbutamol]
modulation of nicotinic acid DMR (P-DMR) [1]: potentiates | modulation of EGF DMR (P-DMR and N-DMR) [2]: little impact
